# According to patent US20230151075A1, “PARATHYROID HORMONE ATTENUATES LOW BACK PAIN AND OSTEOARTHRITIC PAIN” (The Johns Hopkins University, priority 2019, published 2023):
# Legend:
# [1] = tested on: primary DRG neurons; assay: Sodium indication (ANG-2 AM) in primary DRG neurons; type: cell-based, mice
# Experimental: DRG neuron culture was processed as described previously. Saijilafu and Zhou, 2012. Briefly, the dishes or coverslips for DRG neuron culture were coated with 50 μL working solution containing 100 μg/mL Poly-D-Lysine and 10 µg/mL Laminin at 37° C. To prepare the neuron culture medium, alpha minimum essential medium (α-MEM) was supplemented with 1× penicillin-streptomycin solution (500 units of penicillin and 500 μg of streptomycin, Gibco Laboratories, Gaithersburg, Md.), 5% fetal bovine serum (Gibco), 1× GlutaMAX-1 supplement (35050-061, Thermo Fisher Scientific), and the antimitotic reagents containing 20 μM 5-fluoro-2-deoxyuridine (F0503, Sigma-Aldrich) and 20 μM uridine (U3003, Sigma-Aldrich). For the serum-free medium, the fetal bovine serum was replaced with the supplement B27. After euthanizing the 6- to 8-week-old mice, the lumbar DRGs were harvested and stored in microfuge tubes with α-MEM medium placed on ice. DRG neurons were digested and dissociated with 1 mg/mL collagenase A solution (10103578001, Roche, Basel, Switzerland) in a 37° C. incubator for 90 min followed by 1× TrypLE Express solution (15140-122, Thermo Fisher) at 37° C. for 20 min. Then, TrypLE Express solution was removed, and DRGs were washed gently 3 times with 1 mL prepared culture medium (containing 5% fetal bovine serum). Tissue was triturated by gently pipetting up and down 20-30 times in 1 mL prepared culture medium. After trituration, the DRG neuron suspension was filtered (40-μm strainer) following non-dissociated tissue settlement to the bottom of the microfuge and transferred to another tube. After centrifugation (800 r.p.m for 4 min at room temperature), the cell pellet was resuspended and cultured in a precoated dish.
# For sodium indication. ANG-2 AM (Teflabs, Austin, Tex.) was used according to the manufacturer's protocol. Briefly, 1 mM stock solution of ANG-2 AM was diluted to twice the original volume with a solution of 20% Pluronic F-127 (Thermo Fisher Scientific) in DMSO. Then, the ANG-2 AM/Pluronic F-127 solution was dispersed to final concentration at 5 μM ANG-2 AM and 0.1% Pluronic F-127 with serum-free culture medium. After incubation for 1 h at 37° C., the cell loading medium was removed. The cells were washed with serum-free and dye-free medium and prepared for sodium imaging. The sterile imaging buffer contained 5.4 mM KCL, 160 mM NaCL, 20 mM HEPES, 1.3 mM CaCL2, 0.8 mM MgSO4, 0.78 mM NaH2PO4, and 5 mM glucose (pH 7.4) The sodium imaging was monitored and captured using a confocal microscope (Zeiss LSM 780).
# In different sets of experiments, the DRG neurons were treated with 20 μM PGE2 (14010, Cayman Chemical, Ann Arbor, Mich.) for 5 min. […]
# [2] = tested on: PKA/CREB signaling; assay: Western blot and fluorescent staining of PKA and CREB phosphorylation in primary DRG neurons; type: cell-based, mice
# Experimental: DRG neuron culture was processed as described previously. Saijilafu and Zhou, 2012. Briefly, the dishes or coverslips for DRG neuron culture were coated with 50 μL working solution containing 100 μg/mL Poly-D-Lysine and 10 µg/mL Laminin at 37° C. To prepare the neuron culture medium, alpha minimum essential medium (α-MEM) was supplemented with 1× penicillin-streptomycin solution (500 units of penicillin and 500 μg of streptomycin, Gibco Laboratories, Gaithersburg, Md.), 5% fetal bovine serum (Gibco), 1× GlutaMAX-1 supplement (35050-061, Thermo Fisher Scientific), and the antimitotic reagents containing 20 μM 5-fluoro-2-deoxyuridine (F0503, Sigma-Aldrich) and 20 μM uridine (U3003, Sigma-Aldrich). For the serum-free medium, the fetal bovine serum was replaced with the supplement B27. After euthanizing the 6- to 8-week-old mice, the lumbar DRGs were harvested and stored in microfuge tubes with α-MEM medium placed on ice. […]
# The primary DRG neurons were treated with 20 μM PGE2(14010, Cayman Chemical, Ann Arbor, Mich.) for 30 min; 10 μM PKA inhibitor (H-89, BML-E1196, Enzo Life Sciences, Farmingdale, N.Y.) for 1 h. […] Specific antibodies were applied for incubation, and the proteins were detected by using an enhanced chemiluminescence kit (Amersham Bioscience, RNP2108). […]
# [3] = tested on: patients with Modic changes associated LBP; details: cited from earlier work
# [4] = tested on: OA joint; details: intra-articular injection; cited from earlier work
compound,measurement,setting,value
"CCCCC[C@H](O)/C=C/[C@H]1[C@H](O)CC(=O)[C@@H]1C/C=C\CCCC(=O)O [PGE2, Prostaglandin E2]",PGE2-stimulated sodium influx,[1]; DRG neurons of EP4−/− mice,abolished
same,sodium influx (fluorescent intensity of sodium indicator),"[1]; PGE2 20 μM 5 min, DRG neurons from EP4f/f mice",significantly stimulated the enhancement of the fluorescent intensity
same,activation of PKA and CREB,[2]; PGE2 20 μM 30 min,activates
"O=S(=O)(NCCNC/C=C/c1ccc(Br)cc1)c1cccc2cnccc12 [PKA inhibitor, H-89]",PGE2-induced sodium influx,[1]; PGE2 20 μM combined with H-89 10 μM or siRNA for Nav 1.8,ablated
same,PGE2-induced activation of PKA and CREB,[2]; H-89 10 μM 60 min,abrogated
"CCCC(=O)Nc1ncnc2c1ncn2[C@@H]1O[C@@H]2COP(=O)(O)O[C@H]2[C@H]1OC(=O)CCC [cAMP, dibutyryl-cAMP]",sodium influx,"[1]; DRG neurons of EP4−/− mice, PGE2 combined with cAMP",rescued sodium influx
denosumab,analgesic effects,[3],analgesic effects
hyaluronic acid,duration of pain relief,[4],up to 6 months
